This assay concerns PD3. The format is biochemical, Brucella anthropi.

The structures appear in SMILES notation.

Regarding `CCCC(=O)Oc1ccc([N+](=O)[O-])cc1` [p-nitrophenyl butyrate], the Km (as a rule, the concentration of substrate that gives half-maximal velocity) was determined as 7.82 mM.

Source of the values: article PMC11270687 (ACS Omega, 2024).
